The results in this text go back to patent US6064908A, “Device for ionophoresis comprising at least a membrane electrode assembly, for the transcutaneous administration of active principles to a subject” (Elf Aquitaine, priority 1996, dated 2000).

For the series the following is noted: not told.

Text: In each of the determinations mentioned above, samples of the liquid contained in the receiver compartment were taken after determined durations and, by assaying the antifactor Xa activity of the said samples, the quantity of pentasaccharide which has passed into the receiver compartment through the membrane was obtained.

Take polyamide-11: the “Permeability (to pentasaccharide), passive” value was ~ 0 μg/cm^2.
